Here are results for 26 molecules from patent US20110105500A1, “PYRAZINE SUBSTITUTED PURINES” (S*BIO Pte Ltd., priority 2008, published 2011).

The subject of experiment [1] is human breast cancer cell lines. The settings on record: cited from earlier work.
Experiment [2] concerns the target T1, Full-length mTOR kinase (Homo sapiens, UniProt P42345).
T1 construct: Full-length mTOR kinase and His-tagged 4eBP1 were produced in-house; made in house
The experiment can be described thus: mTOR Assay (phosphorylation of 4eBP1, [γ33P]-ATP filter plate). The format is biochemical. The settings on record: 10 μM ATP, 1 hour at room temperature. How it is done:
Full-length mTOR kinase and His-tagged 4eBP1 were produced in-house. [γ^33P]-ATP was purchased from Amersham (GE Healthcare). All chemicals, unless otherwise stated, were from Sigma-Aldrich.
Phosphorylation assays were initially performed in a final volume of 20 μL in 384-well polypropylene plate (Greiner). Compounds were typically tested over the range from 100 μM to 0.006 μM, in 8 step dilutions, in duplicate. 10 μL/well of 2× Enzyme-Substrate solution (1.5 μg/mL mTOR, 40 μg/mL 4eBP1 in 1× assay buffer: 10 mM Hepes pH 7.5, 50 mM NaCl and 10 mM MnCl2) were first added to the sample plate containing 1 μL/well of test compound in neat DMSO. The reaction was initiated by adding 10 μL/well of 20 μM ATP solution (final assay concentration 10 μM ATP and 0.4 μCi/well of [γ^33P]-ATP). After 1 hour incubation at room temperature, the reaction was terminated with 40 μL/well of 20 mM EDTA/1 mM ATP solution.
50 μL/well of the stopped reaction mix was then transferred to 384-well MultiScreenHTS-PH filter plate (Millipore) pre-added with 50 μL/well of 1% phosphoric acid. The plate was washed 4 times with 120 μL/well of 0.5% phosphoric acid via vacuum filtration. Finally, 10 μL/well of Optiphase™ SuperMix liquid scintillation cocktail (Perkin Elmer) was added. After minimum 1 hour of incubation, counting was performed in a Wallac MicroBeta TriLux scintillation counter using coincidence counting mode with crosstalk correction. IC50 is defined as the concentration of compound required for 50% inhibition of kinase enzyme activity.

Experiment [3] addresses T2, Recombinant PI3K p110α/p85 (Homo sapiens, UniProt P42336).
T2 construct: made in house
The experiment can be described thus: PI3K Assay ([γ33P]ATP, PtdIns/PtdSer coated plates). The conditions noted are these: p110α/p85, 2 μM ATP, 1 hour at RT; read-out: IC50 (PI3Kα). It counts as biochemical. Here is the method:
Recombinant PI3K p110α/p85 was prepared in-house. Phosphatidylinositol (PtdIns), phosphotidylserine (PtdSer) and all other unspecified chemicals were purchased from Sigma-Aldrich. [γ33P]ATP and Optiphase scintillant were obtained from Perkin Elmer.
Assays were performed in a final assay volume of 25 μL in 384-well Maxisorp plates (Nunc). […] Maxisorp plates were coated with 20 μL/well of a 1:1 mixture of PtdIns and PtdSer [0.1 mg/mL each dissolved in chloroform:ethanol (3:7)] and left overnight in a fume hood at room temperature to dry.
The enzyme reaction was created by pipetting 5 μL/well of compound (in 2.5% DMSO), 10 μL/well of enzyme (0.5 μg/mL p110α+1 μg/mL p85), and 10 μL/well of 5 μM ATP with 5 μCi/mL [γ^33P]ATP in assay buffer (final concentrations: 0.2 μg/mL p110α, 2 μM ATP, 0.05 μCi/well [γ^33P]ATP in 1× assay buffer: 100 mM Tris-HCl pH 7.0, 200 mM NaCl, 8 mM MgCl2). The reaction was incubated for 1 hour at RT and terminated with 30 μL/well of 50 mM EDTA solution. The plate was then washed twice with TBS, dried, and added with 30 μL/well of scintillant before it was counted in a MicroBeta Trilux.

Molecules are shown by their SMILES. Bounds are passed on as bounds.

T2 sequence (P42336 whole entry): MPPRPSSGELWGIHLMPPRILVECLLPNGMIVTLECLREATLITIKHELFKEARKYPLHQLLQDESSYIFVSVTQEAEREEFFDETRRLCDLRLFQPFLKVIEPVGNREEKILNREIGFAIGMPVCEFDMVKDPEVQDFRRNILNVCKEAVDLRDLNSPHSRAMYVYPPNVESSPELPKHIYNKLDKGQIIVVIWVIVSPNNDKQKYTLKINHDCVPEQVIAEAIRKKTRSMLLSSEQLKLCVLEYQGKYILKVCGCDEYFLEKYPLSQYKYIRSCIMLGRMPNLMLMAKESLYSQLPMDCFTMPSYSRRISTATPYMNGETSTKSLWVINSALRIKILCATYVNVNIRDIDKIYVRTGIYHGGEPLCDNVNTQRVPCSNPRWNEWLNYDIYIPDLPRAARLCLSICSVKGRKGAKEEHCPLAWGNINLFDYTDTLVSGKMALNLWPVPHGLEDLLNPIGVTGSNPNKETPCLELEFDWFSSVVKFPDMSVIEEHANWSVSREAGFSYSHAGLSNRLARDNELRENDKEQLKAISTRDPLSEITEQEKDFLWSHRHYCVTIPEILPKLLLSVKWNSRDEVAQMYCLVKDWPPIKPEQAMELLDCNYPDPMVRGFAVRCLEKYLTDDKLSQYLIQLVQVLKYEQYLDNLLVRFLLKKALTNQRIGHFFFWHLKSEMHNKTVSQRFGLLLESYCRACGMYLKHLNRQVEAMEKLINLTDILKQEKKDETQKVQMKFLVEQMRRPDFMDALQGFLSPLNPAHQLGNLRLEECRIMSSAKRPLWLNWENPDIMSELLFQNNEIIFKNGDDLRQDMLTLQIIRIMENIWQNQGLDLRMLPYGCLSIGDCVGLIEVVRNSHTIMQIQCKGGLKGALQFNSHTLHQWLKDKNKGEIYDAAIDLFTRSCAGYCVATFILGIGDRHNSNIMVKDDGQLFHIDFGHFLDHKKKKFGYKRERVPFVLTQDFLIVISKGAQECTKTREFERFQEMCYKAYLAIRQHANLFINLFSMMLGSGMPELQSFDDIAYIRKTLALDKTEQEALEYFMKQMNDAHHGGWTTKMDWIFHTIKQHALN
T2 sequence (P27986 whole entry partner): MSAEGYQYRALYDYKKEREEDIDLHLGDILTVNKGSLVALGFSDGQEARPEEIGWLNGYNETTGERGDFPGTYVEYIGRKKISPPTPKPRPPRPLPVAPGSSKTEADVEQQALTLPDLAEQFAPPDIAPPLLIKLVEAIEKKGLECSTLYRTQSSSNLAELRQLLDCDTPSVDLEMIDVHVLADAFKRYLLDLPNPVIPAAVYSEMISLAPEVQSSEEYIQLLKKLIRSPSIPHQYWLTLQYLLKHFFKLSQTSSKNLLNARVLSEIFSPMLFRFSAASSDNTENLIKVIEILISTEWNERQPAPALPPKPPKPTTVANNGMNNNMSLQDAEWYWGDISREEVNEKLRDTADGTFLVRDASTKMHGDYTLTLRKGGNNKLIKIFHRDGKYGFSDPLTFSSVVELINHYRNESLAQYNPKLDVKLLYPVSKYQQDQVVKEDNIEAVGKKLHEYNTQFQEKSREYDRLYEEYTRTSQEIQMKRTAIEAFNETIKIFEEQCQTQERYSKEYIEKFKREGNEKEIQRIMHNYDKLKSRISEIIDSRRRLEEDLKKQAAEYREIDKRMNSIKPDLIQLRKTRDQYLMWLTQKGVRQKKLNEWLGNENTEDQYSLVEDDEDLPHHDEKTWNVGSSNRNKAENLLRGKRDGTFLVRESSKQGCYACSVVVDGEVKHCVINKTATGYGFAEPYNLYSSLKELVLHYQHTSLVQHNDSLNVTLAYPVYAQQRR

On to `CO[C@H]1C[C@@H]2CC[C@@H](C)[C@@](O)(O2)C(=O)C(=O)N2CCCC[C@H]2C(=O)O[C@H]([C@H](C)C[C@@H]2CC[C@@H](OC(=O)C(C)(CO)CO)[C@H](OC)C2)CC(=O)[C@H](C)/C=C(\C)[C@@H](O)[C@@H](OC)C(=O)[C@H](C)C[C@H](C)/C=C/C=C/C=C/1C` [CCI-779], for which the “IC50 (sensitive lines)” value in experiment [1] (six of eight human breast cancer cell lines) is listed as “low nanomolar range”. For the same molecule, in experiment [1] (two resistant lines of eight human breast cancer cell lines), the IC50 was greater than 1000 nM.

For `CCC(C)n1cnc2c(-c3cnc(N)cn3)nc(N3CCOCC3)nc21` (stereo not shown) [Compound 1, 5-(9-sec-Butyl-2-morpholin-4-yl-9H-purin-6-yl)-pyrazin-2-ylamine], the IC50 in experiment [2] and in experiment [3] was less than 1000 nM throughout.

Regarding `CC(C)C(C)n1cnc2c(-c3cnc(N)cn3)nc(N3CCOCC3)nc21` (stereo not shown) [Compound 2], the IC50 in experiment [2] and in experiment [3] was less than 1000 nM throughout.

`CCC(C#N)n1cnc2c(-c3cnc(N)cn3)nc(N3CCOCC3)nc21` (stereo not shown) [Compound 3]: the IC50 in experiment [2] and in experiment [3] was less than 1000 nM throughout.

Turning to `CCC(CC)n1cnc2c(-c3cnc(N)cn3)nc(N3CCOCC3)nc21` [Compound 4], the IC50 in experiment [2] and in experiment [3] was less than 1000 nM throughout.

Consider `Nc1cnc(-c2nc(N3CCOCC3)nc3c2ncn3C2CCCC2)cn1` [Compound 5], for which the half-inhibitory concentration (IC50) in experiment [2] and in experiment [3] was less than 1000 nM each time.

With `Nc1cnc(-c2nc(N3CCOCC3)nc3c2ncn3Cc2ccccc2)cn1` [Compound 6], the IC50 is 1000 to 5000 nM in experiment [2] and less than 1000 nM in experiment [3].

In the case of `Nc1cnc(-c2nc(N3CCOCC3)nc3c2ncn3Cc2c(F)cccc2F)cn1` [Compound 7, 5-[9-(2,6-Difluoro-benzyl)-2-morpholin-4-yl-9H-purin-6-yl]-pyrazin-2-ylamine], the IC50 in experiment [2] and in experiment [3] was less than 1000 nM each time.

Regarding `Nc1cnc(-c2nc(N3CCOCC3)nc3c2ncn3CC2CC2)cn1` [Compound 8], the IC50 in experiment [2] and in experiment [3] was less than 1000 nM in each case.

As to `CC(C1CC1)n1cnc2c(-c3cnc(N)cn3)nc(N3CCOCC3)nc21` (stereo not shown) [Compound 9], the IC50 in experiment [2] and in experiment [3] was less than 1000 nM in each case.

Turning to `COCC(C)n1cnc2c(-c3cnc(N)cn3)nc(N3CCOCC3)nc21` (stereo not shown) [Compound 10], the IC50 in experiment [2] and in experiment [3] was less than 1000 nM throughout.

As for `Cc1cccc(-n2cnc3c(-c4cnc(N)cn4)nc(N4CCOCC4)nc32)c1` [Compound 11, 5-(2-Morpholin-4-yl-9-m-tolyl-9H-purin-6-yl)-pyrazin-2-ylamine], the IC50 in experiment [2] and in experiment [3] was less than 1000 nM in each case.

Consider `Nc1cnc(-c2nc(N3CCOCC3)nc3c2ncn3C2CCOC2)cn1` (stereo not shown) [Compound 12], for which the IC50 in experiment [2] and in experiment [3] was less than 1000 nM in each case.

Consider `Nc1cnc(-c2nc(N3CCOCC3)nc3c2ncn3C2CCc3ccccc3C2)cn1` (stereo not shown) [Compound 13], for which the IC50 in experiment [2] and in experiment [3] was less than 1000 nM in each case.

Turning to `Nc1cnc(-c2nc(N3CCOCC3)nc3c2ncn3-c2ccc3c(c2)OCO3)cn1` [Compound 14], the IC50 in experiment [2] and in experiment [3] was less than 1000 nM each time.

Regarding `CCC(C)n1c(Br)nc2c(-c3cnc(N)cn3)nc(N3CCOCC3)nc21` (stereo not shown) [Compound 15, 5-(8-Bromo-9-sec-butyl-2-morpholin-4-yl-9H-purin-6-yl)-pyrazin-2-ylamine], the IC50 in experiment [2] and in experiment [3] was less than 1000 nM each time.

Consider `Nc1cnc(-c2nc(N3CCOCC3)nc3c2ncn3C2CCN(c3ccccc3)CC2)cn1` [Compound 16], for which the IC50 in experiment [2] and in experiment [3] was less than 1000 nM each time.

As to `Nc1cnc(-c2nc(N3CCOCC3)nc3[nH]cnc23)cn1` [Compound 17], the IC50 in experiment [2] and in experiment [3] was less than 1000 nM in each case.

Consider `Nc1cnc(-c2nc(N3CCOCC3)nc3c2ncn3C2CCN(c3ccccc3)C2)cn1` (stereo not shown) [Compound 18], for which the IC50 in experiment [2] and in experiment [3] was less than 1000 nM throughout.

Consider `Nc1cnc(-c2nc(N3CCOCC3)nc3c2ncn3-c2ccccc2)cn1` [Compound 19], for which the 50% inhibitory concentration (IC50) in experiment [2] and in experiment [3] was less than 1000 nM each time.

Turning to `Nc1cnc(-c2nc(N3CCOCC3)nc3c2nc(Br)n3C2CCOC2)cn1` (stereo not shown) [Compound 20], the IC50 in experiment [2] and in experiment [3] was less than 1000 nM in each case.

As to `Nc1cnc(-c2nc(N3CCOCC3)nc3c2ncn3C2Cc3ccccc3C2)cn1` [Compound 21], the IC50 in experiment [2] and in experiment [3] was less than 1000 nM each time.

In the case of `CC(C)(C)Cn1cnc2c(-c3cnc(N)cn3)nc(N3CCOCC3)nc21` [Compound 22], the IC50 in experiment [2] and in experiment [3] was less than 1000 nM each time.

Consider `Nc1cnc(-c2nc(N3CCOCC3)nc3c2ncn3C2CCc3ccccc32)cn1` (stereo not shown) [Compound 23], for which the IC50 in experiment [2] and in experiment [3] was less than 1000 nM each time.

As to `Nc1cnc(-c2nc(N3CCOCC3)nc3c2ncn3C2CCC2)cn1` [Compound 24], the IC50 in experiment [2] and in experiment [3] was less than 1000 nM each time.

As for `CC1CCCCC1n1cnc2c(-c3cnc(N)cn3)nc(N3CCOCC3)nc21` (stereo not shown) [Compound 25], the IC50 in experiment [2] and in experiment [3] was less than 1000 nM in each case.

What is called IC50 is the concentration at which inhibition is half-maximal.
